Results on 1 molecule are retold here after PMC6148290, “Endogenous metabolites of vitamin E limit inflammation by targeting 5-lipoxygenase” (Nature Communications, 2018).

One data set has as its target T1, 12-LO (Homo sapiens, UniProt P18054).
T1 construct: 12-HETE (12-LO product from platelets in PMNL preparations); endogenous in cells; host or cells: platelets contaminating human PMNL preparations
T1 sequence (P18054 1-663): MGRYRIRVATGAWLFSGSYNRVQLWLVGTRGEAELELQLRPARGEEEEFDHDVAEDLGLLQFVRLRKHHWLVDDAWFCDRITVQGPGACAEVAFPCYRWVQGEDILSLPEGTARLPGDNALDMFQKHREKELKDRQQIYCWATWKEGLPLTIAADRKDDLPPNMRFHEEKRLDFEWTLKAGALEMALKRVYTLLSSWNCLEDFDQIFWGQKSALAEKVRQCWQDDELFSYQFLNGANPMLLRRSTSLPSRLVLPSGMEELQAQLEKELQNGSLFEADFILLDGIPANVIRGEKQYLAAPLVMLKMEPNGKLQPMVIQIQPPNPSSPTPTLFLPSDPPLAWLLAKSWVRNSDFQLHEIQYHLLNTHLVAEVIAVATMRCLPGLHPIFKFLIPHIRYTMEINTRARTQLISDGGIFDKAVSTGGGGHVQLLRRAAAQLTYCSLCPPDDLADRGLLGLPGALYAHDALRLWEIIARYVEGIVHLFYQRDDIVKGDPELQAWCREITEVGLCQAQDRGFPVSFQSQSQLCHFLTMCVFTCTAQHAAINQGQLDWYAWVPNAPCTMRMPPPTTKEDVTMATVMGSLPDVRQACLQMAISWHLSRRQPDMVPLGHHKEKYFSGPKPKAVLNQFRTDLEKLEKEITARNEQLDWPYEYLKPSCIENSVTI
The data set can be described thus: 12-LO product formation in A23187/AA-activated PMNL. In kind it is cell-based. The note with it: at 3 µM; mean ± s.e.m., n = 3; n.i. no inhibition. How it is done:
(§1) Cells were washed and medium was exchanged. Freshly isolated PMNL (1 × 10^7) and stably transfected HEK-293 (1 × 10^6) cells were suspended in PBS pH 7.4 containing 1 mg/ml glucose and 1 mM CaCl2. […] A23187- and A23187/AA-treated PMNL and A23187/AA-treated HEK-293 (5-LO_wt), HEK-293 (5-LO_3W) and HEK-293 (5-LO_Arg101Asp) cells produced 135 ± 21, 636 ± 112, 300 ± 59, 133 ± 29, 55 ± 9 ng 5-LO products, respectively. PMNL synthesized 29 ± 6 ng 12-HETE and 97 ± 23 ng 15-HETE when challenged with A23187/AA. 5-LO products from monocytes were analyzed by UPLC-MS/MS.

In a further data set the test system is 15-LO. The data set can be described thus: 15-LO product formation in A23187/AA-activated PMNL. The class given is cell-based, human. To be noted: at 3 µM; mean ± s.e.m., n = 3; n.i. no inhibition. As to the method: as §1
In data set [1] the test system is peripheral blood mononuclear cells. Put plainly: Cell viability of PBMC (MTT assay). In kind it is cell-based, human. To be noted: at 1 and 10 µM (one entry for both); 24 h; n.i. no inhibition. As to the method:
The formazan product was solubilized with SDS (10% in 20 mM HCl), and absorbance was measured at 570 nm using a Multiskan Spectrum microplate reader (Thermo Fisher Scientific).
(In general: Tetrazolium assays rely on reduction of a dye to a coloured formazan, in cell work by metabolically active cells.)

A further data set can be described thus: DPPH radical scavenging. The note with it: DPPH. As to the method:
Compounds were incubated with 2,2-diphenyl-1-picrylhydrazyl (DPPH, Sigma-Aldrich; […]) in ethanol for 30 min. Absorbance was measured at 520 nm using a Multiskan Spectrum Microplate Reader (Thermo Fisher Scientific)[35]. Ascorbic acid (Sigma-Aldrich; 50 µM), used as control, scavenged DPPH radicals by 82.4 ± 1.9%.

The test system of the next data set is intracellular Ca^2+. Put plainly: Intracellular Ca2+ in fMLP-stimulated PMNL. In kind it is cell-based, human. As to the method:
PMNL (1 × 10^6) were incubated with Fura-2/AM (Thermo Fisher Scientific; 2 nmol) for 45 min at 37 °C, washed, resuspended in PBS pH 7.4 plus 1 mg/ml glucose and transferred to fluorescene 96-well microplates (Greiner). After pre-incubation with compounds for 10 min, 1 mM Ca^2+ was added, and cells were stimulated with fMLP (1 µM) for another 10 min. Intracellular Ca^2+ concentrations were determined using a thermally (37 °C) controlled NOVOstar fluorescence microplate reader [BMG Labtech, Ortenberg, Germany; emission at 510 nm, excitation at 340 nm (Ca^2+-bound Fura-2) and 380 nm (free Fura-2)][17]. The maximal fluorescence signal was recorded after lysis of […] with Triton X-100, and the minimal fluorescence was assessed by adding 20 mM EDTA to chelate Ca^2+. The difference in the signal ratio obtained with Triton X-100 and Triton X-100 plus 20 mM EDTA was set to 100% for each experiment.

Data set [2] can be described thus: Water solubility (statement). In kind it is physicochemical. The note with it: authors' statement in reply to reviewer.

With `C/C(=C\CC/C(C)=C/CC[C@]1(C)CCc2cc(O)cc(C)c2O1)CC/C=C(\C)C(=O)O` [4h, garcinoic acid], on 12-LO, the “12-LO product formation/PMNL, residual activity” value is on record as 75.1 ± 12.1 % of control. Further, the “15-LO product formation/PMNL, residual activity” value in the data set on 15-LO is reported as 128.6 ± 42.3 % of control. Moreover, the “Cell viability/peripheral blood mononuclear cells, residual viability” value in data set [1] is recorded as “n.i”. Moreover, the “radical scavenging as measure for antioxidant activity” value in “DPPH radical scavenging” is “only evident at micromolar”. For the same molecule, the “concentration at which intracellular Ca^2+-influx was significantly reduced” value with intracellular Ca^2+ is at least 1 µM. In data set [2], the water solubility result was “poor”.
